According to patent US10265328B2, “C-19 steroids for specific therapeutic uses” (Procima GmbH, priority 2007, dated 2019):
Entries after “also recorded” stand apart in the source; their conditions may differ.

Columns and labels:
[1] = tested on: breast cancer cells; assay: growth of breast cancer cells in culture; format: cell-based; conditions: certain breast cancer cells in culture
Text: A further promising concept is based on a comparative evaluation between DHT and the compounds of the present invention. […] This effect may readily hold also true for hormone independent cancer.

[2] = tested on: variant of the human prostate cancer cell line LNCaP; conditions: cited from earlier work
[3] = tested on: prostate cancer; conditions: 5 mg/day for 7 years vs placebo, men over 55 years, PSA less than 3.0 ng/ml; cited from earlier work
[4] = target: T1, androgen receptor (AR) (Homo sapiens, UniProt P10275); assay: binding affinity to the androgen receptor compared with DHT
T1 sequence (P10275 1-920): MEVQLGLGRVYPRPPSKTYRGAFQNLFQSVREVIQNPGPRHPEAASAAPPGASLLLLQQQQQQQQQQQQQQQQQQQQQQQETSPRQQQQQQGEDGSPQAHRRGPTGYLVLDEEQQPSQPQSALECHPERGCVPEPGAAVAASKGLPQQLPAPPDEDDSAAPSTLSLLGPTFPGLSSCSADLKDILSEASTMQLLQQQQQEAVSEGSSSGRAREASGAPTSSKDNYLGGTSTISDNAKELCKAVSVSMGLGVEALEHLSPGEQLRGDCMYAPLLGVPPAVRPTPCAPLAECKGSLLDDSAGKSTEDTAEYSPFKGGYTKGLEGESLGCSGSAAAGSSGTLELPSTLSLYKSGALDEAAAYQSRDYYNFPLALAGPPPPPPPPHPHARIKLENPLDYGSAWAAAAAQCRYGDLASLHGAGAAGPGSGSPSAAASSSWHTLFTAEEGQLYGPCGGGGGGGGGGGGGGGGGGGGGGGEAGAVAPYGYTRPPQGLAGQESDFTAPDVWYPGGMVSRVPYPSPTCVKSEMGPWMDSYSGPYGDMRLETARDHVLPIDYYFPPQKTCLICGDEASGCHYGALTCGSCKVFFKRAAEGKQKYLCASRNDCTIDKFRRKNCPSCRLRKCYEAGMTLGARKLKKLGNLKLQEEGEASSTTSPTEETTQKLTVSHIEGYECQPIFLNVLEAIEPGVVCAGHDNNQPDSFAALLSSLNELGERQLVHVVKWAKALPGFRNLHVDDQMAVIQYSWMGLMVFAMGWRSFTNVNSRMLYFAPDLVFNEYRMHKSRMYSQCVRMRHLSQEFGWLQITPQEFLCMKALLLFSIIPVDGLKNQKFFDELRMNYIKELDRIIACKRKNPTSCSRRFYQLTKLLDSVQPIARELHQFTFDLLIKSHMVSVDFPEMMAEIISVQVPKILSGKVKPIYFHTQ
Description: The compounds used according to the present invention preferably have a binding affinity to the androgen receptor (AR) higher than DHT; more preferably the binding affinity is high by having affinity specific to AR in a range of IC50≤500 nM, preferably IC50≤100 nM and more preferably IC50≤50 nM, wherein IC50 is defined as the concentration of the compound required to reduce specific binding of a reference compound, 5α-dihydrotestosterone (DHT), by 50%. The IC50-values can be determined by known methods using radioactively labelled DHT as reference compound, for example by a standard dextran-coated charcoal adsorption method as described by Raynaud et al., J. Steroid Biochem. 6, 615-622 (1975), using 1 nM reference concentrations of radiolabeled [^3H]-DHT, or by similar IC50 determination methods described in the literature. Because the concentration of AR in the target cell is very low, typically in the nanomolar range approximately, differences in binding constants to the order contemplated in the present invention are significant.

[5] = tested on: skin; assay: topical application of a 4-OHT preparation to the skin over cellulite predilection areas; format: in vivo
Text: Not only in theory but also in practice the compounds of the present invention and in particular 4-OHT and its related analogous compounds are the ideal anabolic substances. […] This can be deduced from topical applications to the skin.
The border between the two layers is made up of collagen fibres. Strengthening this border by increasing its collagen content by stimulating the fibroblasts to produce more collagen leads to a marked improvement of the appearance of cellulite.
A topical formulation containing a compound according to the present invention such as 4-OHT or an analogous compound can increase the collagen content of the skin via stimulation of the fibroblasts. […] It is reasonable to assume that 4-OHT has solely anabolic effects. […] Apparently is 4-OHT unable to exert any androgenic effects such as hair growth or pimples.

[6] = tested on: 5α-reductase; assay: 5α-reduction of the compound
[7] = target: T2, aromatase (Homo sapiens, UniProt P11511); assay: aromatization of the compound
T2 sequence (P11511 1-503): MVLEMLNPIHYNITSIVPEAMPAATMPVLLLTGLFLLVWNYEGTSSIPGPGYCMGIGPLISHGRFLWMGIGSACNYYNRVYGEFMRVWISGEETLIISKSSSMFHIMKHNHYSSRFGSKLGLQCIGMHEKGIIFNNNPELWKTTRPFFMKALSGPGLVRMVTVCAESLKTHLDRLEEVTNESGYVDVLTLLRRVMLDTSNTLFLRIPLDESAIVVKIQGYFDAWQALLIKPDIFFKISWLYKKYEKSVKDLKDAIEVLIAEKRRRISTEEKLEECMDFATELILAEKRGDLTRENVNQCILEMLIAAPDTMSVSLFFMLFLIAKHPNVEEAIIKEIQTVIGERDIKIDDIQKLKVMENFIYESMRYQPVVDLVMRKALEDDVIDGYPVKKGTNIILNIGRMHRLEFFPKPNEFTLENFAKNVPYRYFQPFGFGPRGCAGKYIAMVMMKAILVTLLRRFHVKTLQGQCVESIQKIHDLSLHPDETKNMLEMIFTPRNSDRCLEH

[8] = topical treatment over predilection areas of cellulite, within four weeks

| SMILES | growth of breast cancer cells in culture [1] | proliferation of LNCaP variant [2] | reduction of prostate cancers in the treatment arm [3] [%] | binding affinity to the AR relative to DHT [4] | androgenic effect on the skin (hair growth, pimples) ([5]; after application to the skin) | concentration of collagen fibres in the skin ([5]; topical application to the skin) | topical formulation compared with 4-OHA ([5]; topical formulation, collagen content of the skin) | adipocytes entrapped in the mesh of collagen fibres [5, 8] | solidification of the skin [5, 8] | 5α-reduction [6] | aromatization [7] |
| --- | --- | --- | --- | --- | --- | --- | --- | --- | --- | --- | --- |
| C[C@]12CCC(=O)C[C@@H]1CC[C@@H]1[C@@H]2CC[C@]2(C)[C@@H](O)CC[C@@H]12 [DHT, dihydrotestosterone, reference compound] | able to abolish the growth | inhibits the proliferation |  |  |  |  |  |  |  |  |  |
| CC(C)(C)NC(=O)[C@H]1CC[C@H]2[C@@H]3CC[C@H]4NC(=O)C=C[C@]4(C)[C@H]3CC[C@]12C [finasteride] |  |  | 25 |  |  |  |  |  |  |  |  |
| C[C@]12CC[C@H]3[C@@H](CCC4=C(O)C(=O)CC[C@@]43C)[C@@H]1CC[C@@H]2O [4-OHT, 4,17β-dihydroxyandrost-4-en-3-one] | even more effective |  |  | higher affinity to the AR than DHT | no androgenic effect whatsoever could be observed | anabolically increases the concentration of collagen fibres; also recorded: drastic augmentation of collagen fibres | superior than 4-OHA | marked diminution and shrinkage of the adipocytes | considerable solidification of the skin | escapes aromatization or 5α-reduction | escapes aromatization |
